Test results from PubChem BioAssay (NCI).
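Interpolation was linear, between the two tested concentrations surrounding the appropriate level; five concentrations were tested over 48 hours in 96-well plates. TGI: total growth inhibition.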

How the values were obtained:
Experiment in all cases: NCI tumour cell line growth inhibition, 48 h
SF-268 CNS = tested on: SF-268 CNS
SNB-78 CNS = tested on: SNB-78 CNS
DLD-1 colon = tested on: DLD-1 colon
K-562 leukemia = tested on: K-562 leukemia
DMS 114 small cell lung = tested on: DMS 114 small cell lung
OVCAR-3 ovarian = tested on: OVCAR-3 ovarian
KM12 colon = tested on: KM12 colon
HOP-18 NSCLC = tested on: HOP-18 NSCLC
MALME-3M melanoma = tested on: MALME-3M melanoma
M19-MEL melanoma = tested on: M19-MEL melanoma
LXFL 529 NSCLC = tested on: LXFL 529 NSCLC
DMS 273 small cell lung = tested on: DMS 273 small cell lung
KM20L2 colon = tested on: KM20L2 colon
XF 498 CNS = tested on: XF 498 CNS
RXF-631 renal = tested on: RXF-631 renal

| SMILES | TGI (SF-268 CNS) | TGI (SNB-78 CNS) | TGI (DLD-1 colon) | TGI (K-562 leukemia) | TGI (DMS 114 small cell lung) | TGI (OVCAR-3 ovarian) | TGI (KM12 colon) | TGI (HOP-18 NSCLC) | TGI (MALME-3M melanoma) | TGI (M19-MEL melanoma) | TGI (LXFL 529 NSCLC) | TGI (DMS 273 small cell lung) | TGI (KM20L2 colon) | TGI (XF 498 CNS) | TGI (RXF-631 renal) |
| --- | --- | --- | --- | --- | --- | --- | --- | --- | --- | --- | --- | --- | --- | --- | --- |
| CCOC(=O)C1=C(C)C2C3C(=O)NC(=O)C3C1(C)C1C(=O)NC(=O)C21 (centres undefined) | > 100 µM | > 100 µM | > 100 µM | > 100 µM | > 100 µM | > 100 µM | > 100 µM | > 100 µM | > 100 µM | > 100 µM | > 100 µM | > 100 µM | > 100 µM |  |  |
| Clc1ccc2c(Cl)ncnc2c1I | > 100 µM |  | > 100 µM | > 100 µM | > 100 µM | > 100 µM | > 100 µM |  | > 100 µM | > 100 µM | > 100 µM | > 100 µM | > 100 µM | > 100 µM |  |
| NC(=S)Nc1nnc(-c2ccc(-c3nnc(NC(N)=S)o3)cc2)o1 | > 100 µM | > 100 µM | > 100 µM | > 100 µM | > 100 µM | > 100 µM | > 100 µM | > 100 µM | > 100 µM | > 100 µM | > 100 µM | > 100 µM | > 100 µM |  |  |
| CC(C)(C)c1cc(N=NC(=S)NCc2ccccc2)cc(C(C)(C)C)c1O | > 100 µM |  | > 100 µM | > 100 µM | > 100 µM | > 100 µM |  |  | > 100 µM | > 100 µM | > 100 µM | > 100 µM | > 100 µM | > 100 µM | > 100 µM |
| CC1C(c2ccccc2)=CCON1c1ccccc1 (centres undefined) | > 100 µM | > 100 µM | > 100 µM | > 100 µM | > 100 µM | > 100 µM | > 100 µM |  | > 100 µM | > 100 µM | > 100 µM |  | > 100 µM | > 100 µM |  |
| BrC12C3C4C5C(C(C43)C13OCCO3)C52 (centres undefined) | > 100 µM | > 100 µM | > 100 µM | > 100 µM | > 100 µM | > 100 µM | > 100 µM | > 100 µM | > 100 µM | > 100 µM | > 100 µM | > 100 µM | > 100 µM | > 100 µM | > 100 µM |
| Cc1cccc(NC(=O)CSc2nnc(Cc3ccccc3)o2)c1 | > 100 µM | > 100 µM | > 100 µM | > 100 µM | > 100 µM | > 100 µM | > 100 µM | > 100 µM | > 100 µM |  | > 100 µM | > 100 µM | > 100 µM |  |  |
| N=c1oc2cc(O)c(O)cc2cc1C(N)=O | > 100 µM | > 100 µM | > 100 µM | > 100 µM | > 100 µM | > 100 µM | > 100 µM |  | > 100 µM | > 100 µM | > 100 µM | > 100 µM | > 100 µM | > 100 µM | > 100 µM |
| O=C(CSc1nnc(-c2ccc(N=Cc3ccc(Cl)cc3)cc2)o1)Nc1ccccc1 | > 100 µM | > 100 µM |  | > 100 µM | > 100 µM |  |  | > 100 µM | > 100 µM | > 100 µM | > 100 µM | 70.6 µM | > 100 µM | > 100 µM |  |
| c1ccc2c(NCCCCCCCCNc3cccc4ccccc34)cccc2c1 | > 100 µM | > 100 µM | > 100 µM | 80.9 µM | 68.2 µM | > 100 µM | > 100 µM | 58.6 µM | 46.5 µM | > 10 µM | 38.1 µM | 80.6 µM | > 100 µM | > 100 µM | 34.5 µM |
